System: anti-phOx-scFv (αphOx15-scFv with c-myc tag), purified monomeric, expressed in Sf9 insect cells
Assay: Surface plasmon resonance (BIAcore) measurement of the monovalent interaction between immobilised scFv and phOx
Assay type: binding
Conditions: monomeric anti-phOx-scFv amine-coupled to CM5 sensor chip (2160 RU); phOx offered as analyte phOx20.5BSA in HBS pH 7.4; BSA background RU subtracted; derived from differential RU at different phOx concentrations; error of 12.6% for the slope
Method: A second independent assay is employed to confirm the low affinity of the monovalent interaction between anti-phOx-scFv and phOx. Surface plasmon resonance signals (Kretschmann, E. and Raether, H. (1968) Z. Naturforsch. 23a, 2135-2136; Liedberg, et al., (1983) Sensors and Actuators 4, 299-304) are recorded with a BlAcore machine (Pharmacia Biosensor AB; Jönsson, et al., (1991) BioTechniques 11, 620-627; Chaiken, et al., (1992) Anal. Biochem. 201, 197-210). Purified monomeric anti-phOx-scFv at a concentration of 40 µg/ml in 5 mM maionic acid pH 6.0 / 0.05% [v/v] Tween-20 is coupled to a CM5 sensor chip using the Amine Coupling Kit (Pharmacia) as described earlier (Johnsson, et al., (1991) Anal. Biochem. 198, 268-277). Via amino groups, 2160 RU of the purified monomeric anti-phOx-scFv is immobilised to the sensor chip (i.e., about 2 ng/mm^2 chip surface; Stenberg, et al., (1991) J. Colloid Interface Sci. 143, 513-526).The activation time is adjusted to 7 min at a flow rate of 5 µl/min. For immobilisation 35 µl of the scFv sample are injected to the chip at the same flow rate. […]
Since a notable background binding of BSA to the modified chip is observed, it is indispensable to record the scFv binding events for both analytes phOx20.5BSA and BSA. […] KD can be derived from the differential RU measured at different phOx concentrations before dissociation is initiated.

Structure (SMILES): CCO/C=C1/N=C(c2ccccc2)OC1=O [phOx]
- Kd: 84.7 µM

Source: patent EP0857177B1, “PROCESS FOR THE PREPARATION OF A SINGLE CHAIN FV ANTIBODY FRAGMENT” (Novartis AG, priority 1995, dated 1997)
